The nature of data set [1]: Aqueous solubility of the compound. Format: physicochemical. The conditions noted are these: buffer.
Data set [2] deals with Hepatitis B virus. The data set is described as follows: Antiviral activity against HBV infected in human HepDES19 cells assessed as reduction in HBV cccDNA production by measuring inhibition of HBeAg secretion incubated for 5 days by ELISA. Type of data set: functional, organism-based. The conditions noted are these: HepDES19, 120 h.
The nature of data set [3]: Therapeutic index, ratio of CC50 for cytotoxicity against human HepDES19 cells assessed as reduction in cell viability measured after 5 days by CCK-8 assay to IC50 for antiviral activity against HBV infected in human HepDES19 cells assessed as reduction in HBV cccDNA production by measuring inhibition of HBeAg secretion incubated for 5 days by ELISA. Format: toxicity, cell-based. The conditions noted are these: time 5 day, read-out: Ratio CC50/IC50.

For data set [4], the system named is Hepatitis B virus. The data set is described as follows: Antiviral activity against HBV infected in human HepG2 cells assessed as reduction in HBeAg secretion incubated for 5 days by counter screen assay. Format: functional, organism-based. The conditions noted are these: HepG2, 120 h.
A short description of data set [5]: Cytotoxicity against human HepDES19 cells assessed as reduction in cell viability measured after 5 days by CCK-8 assay. Format: toxicity, cell-based. The conditions noted are these: time 5 day.
For data set [6], the system named is Hepatitis B virus. As to the kind of experiment: Antiviral activity against HBV infected in human primary hepatocyte cells assessed as reduction in HBV cccDNA production by measuring inhibition of HBsAg secretion measured after 48 hrs by ELISA. Format: functional, organism-based.
Data set [7] deals with Hepatitis B virus. As to the kind of experiment: Antiviral activity against HBV infected in human HepDES19 cells assessed as reduction in HBV cccDNA production by measuring inhibition of HBeAg secretion at 0.3 to 10 uM by southern blot analysis. The conditions noted are these: dose 0.3-10 µM. Type of data set: functional, organism-based.
Data set [8] can be described thus: Metabolic stability in mouse hepatocytes assessed as intrinsic clearance. Format: ADME, cell-based, Hepatocyte. The conditions noted are these: read-out: CLH.
Data set [9] can be described thus: Octanol-aqueous buffer distribution coefficient, log D of the compound at pH 7.4 by CAMDIS assay. Format: physicochemical.
The nature of data set [10]: Permeability of the compound by PAMPA analysis. Type of data set: ADME. The conditions noted are these: read-out: permeability.
Data set [11] can be described thus: Cmax in C3H/J mouse plasma at 5 mg/kg, po by LC-MS/MS analysis. Type of data set: ADME, organism-based. Also on record: dose 5 mg/kg, route po.
Data set [12] in a line: Volume of distribution at steady state in C57BL/6 mouse at 2 mg/kg, iv by LC-MS/MS analysis. The conditions noted are these: in vivo, read-out: Vdss. Format: ADME, organism-based.
The nature of data set [13]: Dose normalized AUC (0 to 24 hrs) in C57BL/6 mouse at 2 mg/kg, iv by LC-MS/MS analysis. Type of data set: ADME, organism-based. The conditions noted are these: in vivo.
Data set [14] is described as follows: Tmax in C57BL/6 mouse at 30 mg/kg, po by LC-MS/MS analysis. Type of data set: ADME, organism-based. The conditions noted are these: in vivo.
Data set [15] can be described thus: Dose normalized AUC (0 to 24 hrs) in C3H/J mouse at 5 mg/kg, po by LC-MS/MS analysis. Type of data set: ADME, organism-based. The conditions noted are these: in vivo.
Data set [16] is described as follows: Dose normalized Cmax in C57BL/6 mouse at 5 mg/kg, po by LC-MS/MS analysis. The conditions noted are these: in vivo. Type of data set: ADME, organism-based.
Data set [17] is described as follows: Tmax in C3H/J mouse plasma at 5 mg/kg, po by LC-MS/MS analysis. Type of data set: ADME, organism-based.
The nature of data set [18]: Dose normalized AUC (0 to 24 hrs) in C57BL/6 mouse at 30 mg/kg, po by LC-MS/MS analysis. Type of data set: ADME, organism-based. The conditions noted are these: in vivo.
A short description of data set [19]: Metabolic stability in human microsomes assessed as clearance. The conditions noted are these: read-out: CLH. Format: ADME, Microsome.
Data set [20] can be described thus: Cmax in C57BL/6 mouse at 30 mg/kg, po by LC-MS/MS analysis. Type of data set: ADME, organism-based. Also on record: dose 30 mg/kg, route po. The conditions noted are these: in vivo.
Data set [21] can be described thus: Clearance in C57BL/6 mouse at 2 mg/kg, iv by LC-MS/MS analysis. Type of data set: ADME, organism-based. The conditions noted are these: in vivo.
Data set [22] can be described thus: AUC (0 to infinity) in C57BL/6 mouse at 5 mg/kg, po by LC-MS/MS analysis. Type of data set: ADME, organism-based. The conditions noted are these: in vivo. Also on record: time infinity, dose 5 mg/kg, route po.
The nature of data set [23]: Elimination half life in C57BL/6 mouse at 30 mg/kg, po by LC-MS/MS analysis. Format: ADME, organism-based. The conditions noted are these: in vivo, read-out: beta t1/2 (converted).
A short description of data set [24]: Elimination half life in C3H/J mouse at 5 mg/kg, po by LC-MS/MS analysis. The conditions noted are these: in vivo, read-out: beta t1/2 (converted). Type of data set: ADME, organism-based.
The nature of data set [25]: AUC (0 to infinity) in C3H/J mouse at 5 mg/kg, po by LC-MS/MS analysis. Format: ADME, organism-based. Also on record: time infinity, dose 5 mg/kg, route po. The conditions noted are these: in vivo.
Data set [26] can be described thus: Tmax in C57BL/6 mouse at 5 mg/kg, po by LC-MS/MS analysis. Format: ADME, organism-based. The conditions noted are these: in vivo.
A short description of data set [27]: Dose normalized AUC (0 to 24 hrs) in C57BL/6 mouse at 5 mg/kg, po by LC-MS/MS analysis. Format: ADME, organism-based. The conditions noted are these: in vivo.
Data set [28] in a line: Cmax in C57BL/6 mouse at 5 mg/kg, po by LC-MS/MS analysis. The conditions noted are these: in vivo. Type of data set: ADME, organism-based. Also on record: dose 5 mg/kg, route po.
The nature of data set [29]: Elimination half life in C57BL/6 mouse at 2 mg/kg, iv by LC-MS/MS analysis. Type of data set: ADME, organism-based. The conditions noted are these: in vivo, read-out: beta t1/2 (converted).
A short description of data set [30]: Elimination half life in C57BL/6 mouse at 5 mg/kg, po by LC-MS/MS analysis. Type of data set: ADME, organism-based. The conditions noted are these: in vivo, read-out: beta t1/2 (converted).
Data set [31] in a line: AUC (0 to infinity) in C57BL/6 mouse at 30 mg/kg, po by LC-MS/MS analysis. Type of data set: ADME, organism-based. Also on record: time infinity, dose 30 mg/kg, route po. The conditions noted are these: in vivo.
Data set [32] is described as follows: Dose normalized Cmax in C3H/J mouse at 5 mg/kg, po by LC-MS/MS analysis. Format: ADME, organism-based. The conditions noted are these: in vivo.
Data set [33] is described as follows: Oral bioavailability in C57BL/6 mouse at 5 mg/kg by LC-MS/MS analysis. The conditions noted are these: in vivo. Format: ADME, organism-based.
Data set [34] in a line: AUC (0 to infinity) in C57BL/6 mouse at 2 mg/kg, iv by LC-MS/MS analysis. Type of data set: ADME, organism-based. Also on record: time infinity, dose 2 mg/kg, route iv. The conditions noted are these: in vivo.

The structures appear in SMILES notation. In brackets after ≈: the same amount, converted by molar mass. Activity calls are given as the source filed them. The rule behind the calls is not given here.

On to `CN(C(=O)c1ccncc1)c1ccc2c(=O)c3cccc(F)c3oc2c1`, for which the solubility in data set [1] is less than 1 µg/mL. In addition, the values for the half-inhibitory concentration (IC50) in the data set on Hepatitis B virus [2] and in the data set with Hepatitis B virus [4] were 18.3 µM and greater than 50 µM, respectively. Further, in [3], the selectivity ratio at 120 h is greater than 5. In addition, the CC50 at 120 h in [5] was greater than 100 µM.
Take `O=C(Nc1ccc2c(=O)c3cccc(F)c3oc2c1)c1ccccc1F`: in data set [1], the solubility was less than 1 µg/mL. In addition, the values for the IC50 in the data set on Hepatitis B virus [6], in the data set with Hepatitis B virus [2] and in the data set with Hepatitis B virus [4] were 5.45 µM, 0.71 µM and greater than 50 µM, respectively. In addition, in [3], the selectivity ratio at 120 h is greater than 141. The outcome in the data set on Hepatitis B virus [7] was Active. In [5], the CC50 at 120 h was greater than 100 µM. Besides, the CLint scaled in [8] came to 86.7 mL/min/kg.
In the case of `O=C(O)C1CCN(c2ccc3c(=O)c4c(C(F)(F)F)ccc(Cl)c4oc3c2)C1` (stereo not given), the concentration in solution in data set [1] (solubility) was 100 µg/mL (≈ 243 µM). Also, the half-inhibitory concentration (IC50) was 1.21 µM with Hepatitis B virus [6], 0.25 µM in the data set on Hepatitis B virus [2] and greater than 50 µM with Hepatitis B virus [4]. In addition, the logD in data set [9] was found to be 1.42. Further, the CLint scaled in [8] was 11.9 mL/min/kg. Also, in data set [10], the Papp was found to be 1.18 ×10⁻⁶ cm/s.
As for `O=C(O)C1CCN(c2cc3oc4c(Cl)cccc4c(=O)c3cc2F)C1` (stereo not given), the results for the IC50 in the data set with Hepatitis B virus [6], in the data set with Hepatitis B virus [2] and in the data set on Hepatitis B virus [4] were 7.74 µM, 1.17 µM and greater than 50 µM, respectively. Besides, the pH-dependent lipophilicity (logD) in data set [9] stood at 1.39.
The molecule `O=C(Nc1ccc2c(=O)c3cccc(F)c3oc2c1)c1ccccc1O` displayed a solubility in [1] of less than 1 µg/mL. Besides, the values for the IC50 in the data set on Hepatitis B virus [2] and in the data set with Hepatitis B virus [4] were 6.79 µM and greater than 50 µM, respectively. Also, in [3], the selectivity ratio at 120 h was determined as 5. Besides, the CC50 at 120 h in data set [5] was found to be 35.1 µM.
The like results for `COc1ccccc1C(=O)Nc1ccc2c(=O)c3cccc(F)c3oc2c1` were, in that order, less than 1 µg/mL, 84.9 µM, greater than 50 µM, greater than 1 and greater than 100 µM.
As to `O=C(Nc1ccc2c(=O)c3cccc(F)c3oc2c1)c1ccncc1F`, the solubility in data set [1] was less than 1 µg/mL. Also, the figures for the 50% inhibitory concentration (IC50) in the data set on Hepatitis B virus [2] and in the data set with Hepatitis B virus [4] were 2.43 µM and greater than 50 µM, respectively. Moreover, in data set [3], the selectivity ratio at 120 h was greater than 20.6. For the same molecule, the CC50 at 120 h in [5] was greater than 100 µM.
Regarding `O=C(O)C1CCN(c2ccc3c(=O)c4cccc(Cl)c4oc3c2)C1` (racemic), the figures for the Cmax in data set [11], in data set [20] and in [28] were 580 ng/mL, 17300 ng/mL and 1650 ng/mL, respectively. Further, the Vd in data set [12] worked out at 0.65 L/kg. Further, the solubility in [1] was less than 435 µg/mL. The AUC/dose in data set [13] is 937 (ng·h/mL)/(mg/kg); in [15] it was 171 (ng·h/mL)/(mg/kg); in data set [18] it was 151 ng·h/mL; in [27], 500 ng·h/mL. Further, the Tmax in data set [14], in data set [17] and in data set [26] was 0.5 h in each case. Besides, the values for the half-maximal inhibitory concentration (IC50) in the data set with Hepatitis B virus [6], in the data set on Hepatitis B virus [2] and with Hepatitis B virus [4] were 1.34 µM, 1.74 µM and greater than 50 µM, respectively. Moreover, the Cmax/dose was found to be 331 ng/mL in [16] and 116 ng/mL in data set [32]. Further, the results for the CLint scaled in [19] and in data set [8] were 6.2 mL/min/kg and 32.3 mL/min/kg, respectively. Also, in data set [21], the clearance was 17.6 mL/min/kg. The AUC(0-inf) came to 2680 ng·h/mL in data set [22], 761 ng·h/mL in data set [25], 31400 ng·h/mL in data set [31] and 1900 ng·h/mL in data set [34]. The half-life in data set [23] was 4.26 h; in data set [24], 1.11 h; in data set [29] it was 2.1 h; in [30], 10.2 h. In data set [9], the logD worked out at 1.12. This molecule also showed a bioavailability in [33] of 56%. Further, in [10], the Papp came out at 2.27 ×10⁻⁶ cm/s.
`N#Cc1ccc(Cl)c2oc3cc(N4CCC(C(=O)O)C4)ccc3c(=O)c12` (stereo not given): in data set [1], the solubility is greater than 443 µg/mL. Further, the IC50 was 12.4 µM in the data set on Hepatitis B virus [6], 1.1 µM in the data set with Hepatitis B virus [2] and greater than 50 µM in the data set with Hepatitis B virus [4]. The Papp in data set [10] amounted to 0.8 ×10⁻⁶ cm/s.

The record behind these values is ChEMBL document CHEMBL5137099, “Discovery of Novel cccDNA Reducers toward the Cure of Hepatitis B Virus Infection” (J Med Chem, 2022).
